Test results: patent US10227350B2 (Gilead Sciences, Inc., priority 2016, dated 2019)

Each compound was assayed against PI3Kβ (Homo sapiens (Human), UniProt P42338) (assay: TR-FRET enzymatic activity assay, PI3Kβ). Settings: 2× Km ATP, 2 μM PIP2, 30 minutes at 25° C., read-out: IC50-PIP-Beta.
Format: biochemical
How it was run: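 Purified recombinant heterodimeric PI3Kβ; PIP3 formation read by TR-FRET as competition with fluorescent tracer for GRP-1 PH domain binding. Compounds incubated 30 min at 25 °C.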

Chain of PI3Kβ (P42338 whole entry): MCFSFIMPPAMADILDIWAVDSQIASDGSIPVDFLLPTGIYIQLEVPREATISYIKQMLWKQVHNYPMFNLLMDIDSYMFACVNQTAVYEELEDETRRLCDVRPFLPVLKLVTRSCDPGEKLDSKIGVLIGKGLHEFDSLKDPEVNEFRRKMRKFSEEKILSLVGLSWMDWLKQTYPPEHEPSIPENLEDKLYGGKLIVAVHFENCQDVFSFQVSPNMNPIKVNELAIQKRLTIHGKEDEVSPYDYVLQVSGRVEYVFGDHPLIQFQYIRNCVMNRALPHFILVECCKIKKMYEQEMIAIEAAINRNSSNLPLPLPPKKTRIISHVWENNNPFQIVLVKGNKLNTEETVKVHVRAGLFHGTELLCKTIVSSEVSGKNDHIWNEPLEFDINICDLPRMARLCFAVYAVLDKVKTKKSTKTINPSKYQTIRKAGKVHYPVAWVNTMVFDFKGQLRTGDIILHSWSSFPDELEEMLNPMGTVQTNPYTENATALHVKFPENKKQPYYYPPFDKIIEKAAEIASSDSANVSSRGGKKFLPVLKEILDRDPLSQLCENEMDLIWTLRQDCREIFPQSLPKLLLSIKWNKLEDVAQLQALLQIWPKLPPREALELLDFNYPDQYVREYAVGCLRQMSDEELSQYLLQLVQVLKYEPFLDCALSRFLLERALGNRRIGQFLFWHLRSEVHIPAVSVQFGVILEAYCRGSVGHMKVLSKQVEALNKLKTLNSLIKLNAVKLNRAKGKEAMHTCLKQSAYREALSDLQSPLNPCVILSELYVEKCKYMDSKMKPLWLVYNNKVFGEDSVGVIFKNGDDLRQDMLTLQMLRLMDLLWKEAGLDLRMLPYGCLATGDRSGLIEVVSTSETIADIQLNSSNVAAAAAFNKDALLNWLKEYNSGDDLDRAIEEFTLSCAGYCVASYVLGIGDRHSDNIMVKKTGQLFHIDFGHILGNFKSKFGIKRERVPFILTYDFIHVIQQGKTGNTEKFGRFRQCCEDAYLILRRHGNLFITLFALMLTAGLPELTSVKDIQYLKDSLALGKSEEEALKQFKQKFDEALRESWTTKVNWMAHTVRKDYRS
Chain of PI3Kβ (P27986 whole entry partner): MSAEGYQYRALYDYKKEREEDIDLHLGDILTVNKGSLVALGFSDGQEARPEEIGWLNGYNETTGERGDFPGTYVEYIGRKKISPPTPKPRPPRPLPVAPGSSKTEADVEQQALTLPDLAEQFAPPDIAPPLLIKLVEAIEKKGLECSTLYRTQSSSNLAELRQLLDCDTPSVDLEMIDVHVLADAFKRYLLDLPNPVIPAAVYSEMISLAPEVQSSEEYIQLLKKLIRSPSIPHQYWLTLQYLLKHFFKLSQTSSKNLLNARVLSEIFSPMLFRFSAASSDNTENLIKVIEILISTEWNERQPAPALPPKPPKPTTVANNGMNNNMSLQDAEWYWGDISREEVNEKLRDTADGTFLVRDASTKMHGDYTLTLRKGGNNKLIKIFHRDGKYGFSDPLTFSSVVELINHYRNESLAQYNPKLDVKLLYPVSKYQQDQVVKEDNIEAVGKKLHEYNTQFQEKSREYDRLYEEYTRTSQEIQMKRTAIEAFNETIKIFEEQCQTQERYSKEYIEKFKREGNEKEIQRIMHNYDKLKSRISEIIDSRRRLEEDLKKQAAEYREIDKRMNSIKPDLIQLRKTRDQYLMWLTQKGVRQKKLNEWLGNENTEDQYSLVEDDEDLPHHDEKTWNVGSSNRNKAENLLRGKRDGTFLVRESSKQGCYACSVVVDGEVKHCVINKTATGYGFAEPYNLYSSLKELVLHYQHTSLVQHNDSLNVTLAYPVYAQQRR

SMILES | IC50 [nM]
Cc1nnc(-c2cc(-c3ccnc(N)c3)cc3c2nc(C2CC2)n3-c2ccnc3c(Cl)ccc(F)c23)[nH]1 [Example 64, 4-[3-(8-chloro-5-fluoroquinolin-4-yl)-2-cyclopropyl-7-(5-methyl-4H-1,2,4-triazol-3-yl)benzimidazol-5-yl]pyridin-2-amine] | 200
Cc1nc2c(-c3nnc[nH]3)cc(-c3ccnc(N)c3F)cc2n1-c1ccnc2c(Cl)ccc(Cl)c12 [Example 161, 4-(1-(5,8-dichloroquinolin-4-yl)-2-methyl-4-(4H-1,2,4-triazol-3-yl)-1H-benzo[d]imidazol-6-yl)-3-fluoropyridin-2-amine] | 6
CCc1nc2c(-c3nnc[nH]3)cc(-c3ccnc(N)c3)cc2n1-c1ccnc2cc(F)ccc12 [Example 52, 4-[2-ethyl-3-(7-fluoroquinolin-4-yl)-7-(4H-1,2,4-triazol-3-yl)benzimidazol-5-yl]pyridin-2-amine] | 330
Cc1nc2c(-c3nnc[nH]3)cc(-c3ccnc(C#N)c3)cc2n1-c1ccnc2c(F)ccc(F)c12 (single isomer, unassigned) [Example 113, 4-[3-(5,8-difluoroquinolin-4-yl)-2-methyl-7-(4H-1,2,4-triazol-3-yl)benzimidazol-5-yl]pyridine-2-carbonitrile] | 2
Cc1nc2c(-c3nnc[nH]3)cc(-c3ccnc(C#N)n3)cc2n1-c1ccnc2c(F)ccc(F)c12 [Example 152, 4-(1-(5,8-difluoroquinolin-4-yl)-2-methyl-4-(4H-1,2,4-triazol-3-yl)-1H-benzo[d]imidazol-6-yl)pyrimidine-2-carbonitrile] | 10
Fc1nccc(-c2ccc3ncn(-c4cc(N5CCNCC5)nc5ccccc45)c3c2)c1F [Example 165, 4-(6-(2,3-difluoropyridin-4-yl)-1H-benzo[d]imidazol-1-yl)-2-(piperazin-1-yl)quinoline] | 480
Nc1nccc(-c2cc(-c3nnc[nH]3)c3nc(CC4CC4)n(-c4ccnc5c(F)ccc(F)c45)c3c2)c1F [Example 96, 4-[2-(cyclopropylmethyl)-3-(5,8-difluoroquinolin-4-yl)-7-(4H-1,2,4-triazol-3-yl)benzimidazol-5-yl]-3-fluoropyridin-2-amine] | 7
Cc1nc2c(C(N)=O)cc(-c3ccncc3)cc2n1-c1ccnc2c(F)ccc(F)c12 [Example 6, 1-(5,8-difluoroquinolin-4-yl)-2-methyl-6-pyridin-4-ylbenzimidazole-4-carboxamide] | 36
Cc1nc2c(-c3nnc[nH]3)cc(-c3ccnc(C#N)c3)cc2n1-c1ccnc2c(Cl)ccc(F)c12 [Example 153, 4-(1-(8-chloro-5-fluoroquinolin-4-yl)-2-methyl-4-(4H-1,2,4-triazol-3-yl)-1H-benzo[d]imidazol-6-yl)picolinonitrile] | 7
Cc1nc2c(C(N)=O)cc(-c3ccnc(N)c3)cc2n1-c1ccnc2c(Cl)ccc(F)c12 [Example 18, 6-(2-aminopyridin-4-yl)-1-(8-chloro-5-fluoroquinolin-4-yl)-2-methylbenzimidazole-4-carboxamide] | 23
Cc1c(-c2cc(-c3nnc[nH]3)c3nc(C)n(-c4ccnc5c(F)ccc(F)c45)c3c2)ccnc1N [Example 101, 4-[3-(5,8-difluoroquinolin-4-yl)-2-methyl-7-(4H-1,2,4-triazol-3-yl)benzimidazol-5-yl]-3-methylpyridin-2-amine] | 2800
Cc1nc2c(-c3nnc[nH]3)cc(-c3ccnc(N)c3)cc2n1-c1ccnc2c(Cl)ccc(F)c12 [Example 51, 4-[3-(8-chloro-5-fluoroquinolin-4-yl)-2-methyl-7-(4H-1,2,4-triazol-3-yl)benzimidazol-5-yl]pyridin-2-amine] | 3
Cc1nc2c(-c3nnc[nH]3)cc(-c3ccnc(C#N)c3)cc2n1-c1ccnc2c(Cl)cccc12 (single isomer, unassigned) [Example 129, 4-(1-(8-chloroquinolin-4-yl)-2-methyl-4-(4H-1,2,4-triazol-3-yl)-1H-benzo[d]imidazol-6-yl)picolinonitrile] | 3
Cc1nc2c(-c3nnc[nH]3)cc(-c3ccnc(F)c3F)cc2n1-c1ccnc2c(F)ccc(F)c12 [Example 42, 4-[6-(2,3-difluoropyridin-4-yl)-2-methyl-4-(4H-1,2,4-triazol-3-yl)benzimidazol-1-yl]-5,8-difluoroquinoline] | 10
CCc1nc2c(-c3nnc[nH]3)cc(-c3ccnc(N)c3)cc2n1-c1ccnc2c(F)ccc(F)c12 [Example 70, 4-[3-(5,8-difluoroquinolin-4-yl)-2-ethyl-7-(4H-1,2,4-triazol-3-yl)benzimidazol-5-yl]pyridin-2-amine] | 13
Cc1nc2c(C(=O)O)cc(-c3ncnc4[nH]cnc34)cc2n1-c1ccnc2c(Cl)cccc12 [Example 3] | 2800
Cc1nc2c(-c3nnc[nH]3)cc(-c3ccnc(N)c3F)cc2n1-c1ccnc2c(F)ccc(F)c12 (single isomer, unassigned) [Example 105, 4-[3-(5,8-difluoroquinolin-4-yl)-2-methyl-7-(4H-1,2,4-triazol-3-yl)benzimidazol-5-yl]-3-fluoropyridin-2-amine] | 1400
Cc1nc2c(-c3nnc[nH]3)cc(-c3ccnc(N)c3F)cc2n1-c1ccnc2c(F)ccc(F)c12 (atropisomer, axis not shown) [Example 106, 4-[3-(5,8-difluoroquinolin-4-yl)-2-methyl-7-(4H-1,2,4-triazol-3-yl)benzimidazol-5-yl]-3-fluoropyridin-2-amine] | 3
Cc1nc2c(-c3nnc[nH]3)cc(-c3ccnc(C#N)c3)cc2n1-c1ccnc2cccc(Cl)c12 [Example 146, 4-(1-(5-chloroquinolin-4-yl)-2-methyl-4-(4H-1,2,4-triazol-3-yl)-1H-benzo[d]imidazol-6-yl)picolinonitrile] | 200
Cc1nc2c(-c3nnc[nH]3)cc(-c3ccnc(C#N)c3)cc2n1-c1ccnc2cccc(F)c12 (single isomer, unassigned) [Example 132, 4-(1-(5-fluoroquinolin-4-yl)-2-methyl-4-(4H-1,2,4-triazol-3-yl)-1H-benzo[d]imidazol-6-yl)picolinonitrile] | 54
Cc1nc2c(-c3nnc[nH]3)cc(-c3ccnc(N)c3F)cc2n1-c1ccnc2cc(F)cc(F)c12 (single isomer, unassigned) [Example 117] | 4

Results, then the compound that gave them:

IC50 [nM] | SMILES
3 | Nc1nccc(-c2cc(-c3nnc[nH]3)c3nc(C4CC4)n(-c4ccnc5c(Cl)ccc(F)c45)c3c2)c1F [Example 85, 4-[3-(8-chloro-5-fluoroquinolin-4-yl)-2-cyclopropyl-7-(4H-1,2,4-triazol-3-yl)benzimidazol-5-yl]-3-fluoropyridin-2-amine]
150 | Cc1cc(-c2cc(C(N)=O)c3nc(C)n(-c4ccnc5c(Cl)cccc45)c3c2)ccn1 [Example 15, 1-(8-chloroquinolin-4-yl)-2-methyl-6-(2-methylpyridin-4-yl)benzimidazole-4-carboxamide]
96 | Cc1nc2c(C(N)=O)cc(-c3ccnc(N)c3)cc2n1-c1ccnc2c(Cl)cccc12 [Example 23, 6-(2-aminopyridin-4-yl)-1-(8-chloroquinolin-4-yl)-2-methyl-1H-benzo[d]imidazole-4-carboxamide]
30 | Cc1nc2c(-c3nnc[nH]3)cc(-c3ccnc(C#N)c3)cc2n1-c1ccnc2cc(F)cc(F)c12 (single isomer, unassigned) [Example 116, 4-(1-(5,7-difluoroquinolin-4-yl)-2-methyl-4-(4H-1,2,4-triazol-3-yl)-1H-benzo[d]imidazol-6-yl)picolinonitrile]
7 | CCCc1nc2c(-c3nnc[nH]3)cc(-c3ccnc(N)c3)cc2n1-c1ccnc2c(Cl)ccc(F)c12 [Example 63, 4-[3-(8-chloro-5-fluoroquinolin-4-yl)-2-propyl-7-(4H-1,2,4-triazol-3-yl)benzimidazol-5-yl]pyridin-2-amine]
62 | Cc1nc2c(C(N)=O)cc(-c3ccncc3F)cc2n1-c1ccnc2c(Cl)cccc12 [Example 14, 1-(8-chloroquinolin-4-yl)-6-(3-fluoropyridin-4-yl)-2-methylbenzimidazole-4-carboxamide]
9 | COc1nccc(-c2cc(-c3nnc[nH]3)c3nc(C)n(-c4ccnc5c(F)ccc(F)c45)c3c2)n1 [Example 154, 5,8-difluoro-4-(6-(2-methoxypyrimidin-4-yl)-2-methyl-4-(4H-1,2,4-triazol-3-yl)-1H-benzo[d]imidazol-1-yl)quinoline]
11 | Nc1nccc(-c2cc(-c3nnc[nH]3)c3ncn(-c4ccnc5c(F)ccc(F)c45)c3c2)c1F [Example 102, 4-[3-(5,8-difluoroquinolin-4-yl)-7-(4H-1,2,4-triazol-3-yl)benzimidazol-5-yl]-3-fluoropyridin-2-amine]
70 | N#Cc1cc(-c2cc(-c3nnc[nH]3)c3ncn(-c4cc(-c5cn[nH]c5)nc5ccccc45)c3c2)ccn1 [Example 166, 4-(1-(2-(1H-pyrazol-4-yl)quinolin-4-yl)-4-(4H-1,2,4-triazol-3-yl)-1H-benzo[d]imidazol-6-yl)picolinonitrile]
16 | Cc1nc2c(-c3nnc[nH]3)cc(-c3ccnc(C#N)c3)cc2n1-c1ccnc2c(F)cccc12 [Example 148, 4-(1-(8-fluoroquinolin-4-yl)-2-methyl-4-(4H-1,2,4-triazol-3-yl)-1H-benzo[d]imidazol-6-yl)picolinonitrile]
3 | Cc1nc2c(-c3nnc[nH]3)cc(-c3ccnc(C#N)c3)cc2n1-c1ccnc2cc(F)cc(F)c12 (single isomer, unassigned) [Example 115, 4-(1-(5,7-difluoroquinolin-4-yl)-2-methyl-4-(4H-1,2,4-triazol-3-yl)-1H-benzo[d]imidazol-6-yl)picolinonitrile]
34 | Cc1nc2c(C(=O)O)cc(-c3ccncc3)cc2n1-c1ccnc2c(Cl)cccc12 [Example 1]
13 | Nc1cc(-c2cc(-c3nnc[nH]3)c3nc(CC4CC4)n(-c4ccnc5c(F)ccc(F)c45)c3c2)ccn1 [Example 71, 4-[2-(cyclopropylmethyl)-3-(5,8-difluoroquinolin-4-yl)-7-(4H-1,2,4-triazol-3-yl)benzimidazol-5-yl]pyridin-2-amine]
